Assay [1] deals with GDP-bound NRAS wild-type protein (Homo sapiens, UniProt P01111). Put plainly: Binding to NRAS by surface plasmon resonance (SPR), Single Cycle Kinetics. To be noted: for NRAS/KRAS (ratio of KD value with respect to NRAS to KD value with respect to KRAS) / NRAS/KRAS (ratio of KD value for NRAS to KD value for KRAS): GDP-bound NRAS wild-type vs GDP-bound KRAS wild-type.
Assay [2] has as its target GDP-bound HRAS wild-type protein (Homo sapiens, UniProt P01112). Put plainly: Binding to HRAS by surface plasmon resonance (SPR), Single Cycle Kinetics. The following applies: for HRAS/KRAS (ratio of KD value with respect to HRAS to KD value with respect to KRAS) / HRAS/KRAS (ratio of KD value for HRAS to KD value for KRAS): GDP-bound HRAS wild-type vs GDP-bound KRAS wild-type.

[3] abbreviates: KD ratio NRAS/KRAS, SPR, GDP-bound wild-type proteins.
The mark [4] stands for this setting: KD ratio HRAS/KRAS, SPR, GDP-bound wild-type proteins.

*1 amine or outer side, *2 acyl side, *3 side chain or, on linkers, in order; H or OH if unused. Where a SMILES comes first, the peptide text is derived from it. Bridges are numbered along the chain shown (N, C = ends). [ ]: non-standard residue; d: D form. The star is where a group is joined. hPhe(3-Cl-4-CF3) = N[C@@H](CCc1ccc(C(F)(F)F)c(Cl)c1)C(=O)O; X10 = CCCN([C@@H](Cc1ccc(F)cc1)C(=O)[*:2])[*:1]; NMeGly(cPent) = CN[C@H](C(=O)O)C1CCCC1; NMeD = CN[C@@H](CC(=O)O)C(=O)O; NMeL = CN[C@@H](CC(C)C)C(=O)O; Morpholide = C1CN(*)CCO1; NMeA = CN[C@@H](C)C(=O)O; Ac5c = NC1(C(=O)O)CCCC1; Aze = O=C(O)[C@@H]1CCN1; Sar = CNCC(=O)O

GDP-bound NRAS wild-type protein, sequence (P01111 whole entry): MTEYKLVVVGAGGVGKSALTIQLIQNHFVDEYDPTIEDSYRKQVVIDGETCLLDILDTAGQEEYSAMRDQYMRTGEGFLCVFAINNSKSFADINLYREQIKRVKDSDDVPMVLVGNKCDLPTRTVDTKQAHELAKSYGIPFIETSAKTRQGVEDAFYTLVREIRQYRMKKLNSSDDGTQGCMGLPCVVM
GDP-bound HRAS wild-type protein, sequence (P01112 whole entry): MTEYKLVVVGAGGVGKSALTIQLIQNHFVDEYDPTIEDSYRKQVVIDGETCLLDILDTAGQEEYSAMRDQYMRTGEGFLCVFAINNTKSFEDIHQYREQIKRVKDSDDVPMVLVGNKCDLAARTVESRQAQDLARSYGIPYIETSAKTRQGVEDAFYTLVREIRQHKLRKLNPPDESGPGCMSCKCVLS

As for `CCC(CC)[C@H]1C(=O)N(C)[C@H](C(=O)N2CCCCC2)CC(=O)N(C)[C@@H](COC)C(=O)N[C@@H]([C@@H](C)CC)C(=O)N(C)CC(=O)N(C)[C@H]2C/C=C\CCN(C2=O)[C@@H](Cc2ccc(C(F)(F)F)cc2)C(=O)N(C)CC(=O)N[C@@H](CCc2ccc(Cl)c(Cl)c2)C(=O)N2C[C@H](OC(C)C)C[C@H]2C(=O)NC2(CC(C)(C)C2)C(=O)N1C` [PP2612], the “NRAS/KRAS (ratio of KD value with respect to GDP-bound NRAS wild-type protein to KD value with respect to KRAS)” value in assay [1] (KD ratio NRAS/KRAS, class symbols) is reported as “AA (a compound having 20 or more is denoted as AA)”. Also, the “HRAS/KRAS (ratio of KD value with respect to GDP-bound HRAS wild-type protein to KD value with respect to KRAS)” value in assay [2] (KD ratio HRAS/KRAS, class symbols) is “A (a compound having 10 or more and less than 20 is denoted as A)”.

In the case of `CCO[C@@H]1C[C@H]2C(=O)NC3(CCCC3)C(=O)N(C)[C@@H](C3CCCC3)C(=O)N(C)[C@H](C(=O)N(C)C)CC(=O)N(C)[C@@H](CC(C)C)C(=O)N[C@@H]([C@@H](C)CC)C(=O)N(C)CC(=O)N(C)[C@H]3C[C@@H](C)CCN(C3=O)[C@@H](Cc3ccc(C(F)(F)F)cc3)C(=O)N(C)CC(=O)N[C@@H](CCc3cc(F)c(C(F)(F)F)c(F)c3)C(=O)N2C1` [PP1017], in assay [1] (KD ratio, SPR), the “NRAS/KRAS (ratio of KD value with respect to NRAS to KD value with respect to KRAS)” value was “C (A compound having a KD ratio of 0.1 or more and less than 3 is denoted as C)”. Further, the “HRAS/KRAS (ratio of KD value with respect to HRAS to KD value with respect to KRAS)” value in assay [2] (KD ratio, SPR) is “B (a compound having 3 or more and less than 10 is denoted as B)”.

Consider `C=CC[C@H]1C(=O)N[C@@H]([C@@H](C)CC)C(=O)N(C)CC(=O)N(C)[C@H]2CCCCN(C2=O)[C@@H](Cc2ccc(C(F)(F)F)cc2)C(=O)N(C)CC(=O)N[C@@H](CCc2cc(F)c(C(F)(F)F)c(F)c2)C(=O)N2C[C@H](OCC)C[C@H]2C(=O)N[C@](C)(CC=C)C(=O)N(C)[C@@H](C2CCCC2)C(=O)N(C)[C@H](C(=O)N2CCOCC2)CC(=O)N1C` [PP0874], for which the “NRAS/KRAS (ratio of KD value with respect to NRAS to KD value with respect to KRAS)” value in assay [1] (KD ratio, SPR) is “C (A compound having a KD ratio of 0.1 or more and less than 3 is denoted as C)”. The “HRAS/KRAS (ratio of KD value with respect to HRAS to KD value with respect to KRAS)” value in assay [2] (KD ratio, SPR) was “B (a compound having 3 or more and less than 10 is denoted as B)”.

For the compound `CC[C@H](C)[C@@H]1NC(=O)[C@H](CC)N(C)C(=O)C[C@@H](C(=O)N(C)C)N(C)C(=O)[C@H](C2CCCC2)N(C)C(=O)C2(CCC2)NC(=O)[C@@H]2C[C@@H](OC)CN2C(=O)[C@H](CCc2cc(F)c(C(F)(F)F)c(F)c2)NC(=O)CN(C)C(=O)[C@H](Cc2ccc(C(F)(F)F)cc2)N2CC/C=C\C[C@@H](C2=O)N(C)C(=O)CN(C)C1=O` [PP1130], the “NRAS/KRAS (ratio of KD value with respect to NRAS to KD value with respect to KRAS)” value in assay [1] (KD ratio, SPR) is “A (a compound having 10 or more and less than 20 is denoted as A)”. Further, the “HRAS/KRAS (ratio of KD value with respect to HRAS to KD value with respect to KRAS)” value in assay [2] (KD ratio, SPR) was “B (a compound having 3 or more and less than 10 is denoted as B)”.

Take `C#CC[C@H]1C(=O)N[C@@H]([C@@H](C)CC)C(=O)N(C)CC(=O)N(C)[C@H]2C/C=C\CCN(C2=O)[C@@H](Cc2ccc(C(F)(F)F)cc2)C(=O)N(C)CC(=O)N[C@@H](CCc2ccc(C(F)(F)F)c(Cl)c2)C(=O)N2CC3(CC3)C[C@H]2C(=O)NC2(CC(C)(C)C2)C(=O)N(C)[C@@H](C2CCCC2)C(=O)N(C)[C@H](C(=O)N(C)C)CC(=O)N1C` [PP2980]: the “NRAS/KRAS (ratio of KD value with respect to GDP-bound NRAS wild-type protein to KD value with respect to KRAS)” value in assay [1] (setting [3]) was “A (a compound having 10 or more and less than 20 is denoted as A)”. Further, in assay [2] (setting [4]), the “HRAS/KRAS (ratio of KD value with respect to GDP-bound HRAS wild-type protein to KD value with respect to KRAS)” value is “B (a compound having 3 or more and less than 10 is denoted as B)”.

Regarding `CCO[C@@H]1C[C@H]2C(=O)NC3(CCC3)C(=O)N(C)[C@@H](C3CCCC3)C(=O)N(C)[C@H](C(=O)N3CCOCC3)CC(=O)N(C)[C@@H](CC)C(=O)N[C@@H]([C@@H](C)CC)C(=O)N3CC[C@H]3C(=O)N(C)[C@H]3C[C@@H](C)CCN(C3=O)[C@@H](Cc3ccc(C(F)(F)F)cc3)C(=O)N(C)CC(=O)N[C@@H](CCc3cc(F)c(C(F)(F)F)c(F)c3)C(=O)N2C1` [PP1028], the “NRAS/KRAS (ratio of KD value with respect to NRAS to KD value with respect to KRAS)” value in assay [1] (KD ratio, SPR) is “B (a compound having 3 or more and less than 10 is denoted as B)”. Also, the “HRAS/KRAS (ratio of KD value with respect to HRAS to KD value with respect to KRAS)” value in assay [2] (KD ratio, SPR) was “B (a compound having 3 or more and less than 10 is denoted as B)”.

For `CCC[C@H]1C(=O)N[C@@H](C2CCOCC2)C(=O)N(C)CC(=O)N(C)[C@H]2C/C=C\CCN(C2=O)[C@@H](Cc2ccc(C)cc2)C(=O)N(C)CC(=O)N[C@@H](CCc2ccc(C(F)(F)F)c(Cl)c2)C(=O)N2C[C@H](OCC)C[C@H]2C(=O)NC2(CC(C)(C)C2)C(=O)N(C)[C@@H](C2CCCC2)C(=O)N(C)[C@H](C(=O)N(C)C)CC(=O)N1C` [PP3002], the “NRAS/KRAS (ratio of KD value with respect to GDP-bound NRAS wild-type protein to KD value with respect to KRAS)” value in assay [1] (setting [3]) is “A (a compound having 10 or more and less than 20 is denoted as A)”. The “HRAS/KRAS (ratio of KD value with respect to GDP-bound HRAS wild-type protein to KD value with respect to KRAS)” value in assay [2] (setting [4]) is “A (a compound having 10 or more and less than 20 is denoted as A)”.

Take `CCO[C@@H]1C[C@H]2C(=O)NC3(CC(C)(C)C3)C(=O)N(C)[C@@H](C(CC)CC)C(=O)N(C)[C@H](C(=O)N(C)C)CC(=O)N(C)[C@@H](COC)C(=O)N[C@@H]([C@@H](C)CC)C(=O)N(C)CC(=O)N(C)[C@H]3C/C=C\CCN(C3=O)[C@@H](Cc3ccc(C(F)(F)F)cc3)C(=O)N(C)CC(=O)N[C@@H](CCc3ccc(C(F)(F)F)c(OC)c3)C(=O)N2C1` [PP2157]: the “NRAS/KRAS (ratio of KD value with respect to NRAS to KD value with respect to KRAS)” value in assay [1] (SPR) is “A (a compound having 10 or more and less than 20 is denoted as A)”. Also, in assay [2] (SPR), the “HRAS/KRAS (ratio of KD value with respect to HRAS to KD value with respect to KRAS)” value was “A (a compound having 10 or more and less than 20 is denoted as A)”.

`CC[C@H](C)[C@@H]1NC(=O)[C@H](CC2CCC2)N(C)C(=O)C[C@@H](C(=O)N(C)C)N(C)C(=O)[C@H](C2CCCC2)N(C)C(=O)C2(CC(C)(C)C2)NC(=O)[C@@H]2CC(F)(F)CN2C(=O)[C@H](CCc2cc(F)c(C(F)(F)F)c(F)c2)NC(=O)CN(C)C(=O)[C@H](Cc2ccc(C(F)(F)F)cc2)N2CC/C=C\C[C@@H](C2=O)N(C)C(=O)CN(C)C1=O` [PP1716]: the “NRAS/KRAS (ratio of KD value for NRAS to KD value for KRAS)” value in assay [1] (KD ratio, SPR) was “AA (a compound having 20 or more is denoted as AA)”. Moreover, in assay [2] (KD ratio, SPR), the “HRAS/KRAS (ratio of KD value for HRAS to KD value for KRAS)” value was “A (a compound having 10 or more and less than 20 is denoted as A)”.

As to `CCCN1C(=O)[C@@H]2CCN2C(=O)[C@H](C)N(C)C(=O)[C@H]([C@@H](C)CC)NC(=O)[C@H](CC(C)C)N(C)C(=O)C[C@@H](C(=O)N2CCOCC2)N(C)C(=O)[C@H](C2CCCC2)N(C)C(=O)C2(CCCC2)NC(=O)[C@@H]2CCCN2C(=O)[C@H](CCc2ccc(C(F)(F)F)c(Cl)c2)NC(=O)CN(C)C(=O)[C@@H]1Cc1ccc(F)cc1` [PP0219] ([NMeL]I[NMeA][Aze][X10][Sar][hPhe(3-Cl-4-CF3)]P[Ac5c][NMeGly(cPent)][NMeD]-Morpholide; lactam N-11), in assay [1] (KD ratio NRAS/KRAS, SPR), the “NRAS/KRAS (ratio of KD for GDP-bound NRAS wild-type to KD for KRAS)” value was “C (A compound having a KD ratio of 0.1 or more and less than 3 is denoted as C)”. Further, in assay [2] (KD ratio HRAS/KRAS, SPR), the “HRAS/KRAS (ratio of KD for GDP-bound HRAS wild-type to KD for KRAS)” value is “B (a compound having 3 or more and less than 10 is denoted as B)”.

With `CCCN(C)C(=O)[C@@H]1CC(=O)N(C)[C@@H](COC)C(=O)N[C@@H]([C@@H](C)CC)C(=O)N(C)CC(=O)N(C)[C@H]2C/C=C\CCN(C2=O)[C@@H](Cc2ccc(C(F)(F)F)cc2)C(=O)N(C)CC(=O)N[C@@H](CCc2cc(F)c(C(F)(F)F)c(F)c2)C(=O)N2C[C@H](OCC)C[C@H]2C(=O)NC2(CC(F)(F)C2)C(=O)N(C)[C@@H](C2CCCC2)C(=O)N1C` [PP1743], in assay [1] (KD ratio, SPR), the “NRAS/KRAS (ratio of KD value for NRAS to KD value for KRAS)” value was “AA (a compound having 20 or more is denoted as AA)”. Moreover, the “HRAS/KRAS (ratio of KD value for HRAS to KD value for KRAS)” value in assay [2] (KD ratio, SPR) is “A (a compound having 10 or more and less than 20 is denoted as A)”.

These data come from patent US20250230193A1, “CYCLIC COMPOUND HAVING SELECTIVE KRAS INHIBITORY EFFECT ON HRAS AND NRAS” (CHUGAI SEIYAKU KABUSHIKI KAISHA, priority 2022, published 2025).
